Test results taken from PubChem BioAssay AID1918993 (Molecular Pharmacology Branch, DTP, NCI, 2023).

Tested on: 233499-124-R-J3-PDC complex spheroid growth
Assay: Anticancer human tumor 233499-124-R-J3-PDC patient-derived colon adenocarcinoma cell line growth inhibition [AhR]
Details: for IC50: curve of first compound; for viability, T/C: stronger effect = lower value
Summary of the method: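 Complex tumor spheroids co-cultured with HUVEC and human MSC stroma; AhR antagonists tested in combination with standard-of-care and investigational agents. Top concentration at or near clinical Cmax (else 10 microM), half-log dilutions; growth expressed as percent test/control.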

[1] = second compound 0.1 µM, first compound 0.0316 µM
[2] = second compound 0.1 µM, first compound 0.1 µM
[3] = second compound 0.1 µM, first compound 0.316 µM
[4] = second compound 0.1 µM, first compound 1 µM
[5] = second compound 0.1 µM, first compound 3.16 µM
[6] = second compound 0.1 µM, first compound 10 µM
[7] = second compound 0.316 µM, first compound 0.0316 µM
[8] = second compound 0.316 µM, first compound 0.1 µM
[9] = second compound 0.316 µM, first compound 0.316 µM
[10] = second compound 0.316 µM, first compound 1 µM
[11] = second compound 0.316 µM, first compound 3.16 µM
[12] = second compound 0.316 µM, first compound 10 µM
[13] = second compound 1 µM, first compound 0.0316 µM
[14] = second compound 1 µM, first compound 0.1 µM
[15] = second compound 1 µM, first compound 0.316 µM
[16] = second compound 1 µM, first compound 1 µM
[17] = second compound 1 µM, first compound 3.16 µM
[18] = second compound 1 µM, first compound 10 µM
[19] = second compound 3.16 µM, first compound 0.0316 µM
[20] = second compound 3.16 µM, first compound 0.1 µM
[21] = second compound 3.16 µM, first compound 0.316 µM
[22] = second compound 3.16 µM, first compound 1 µM
[23] = second compound 3.16 µM, first compound 3.16 µM
[24] = second compound 3.16 µM, first compound 10 µM
[25] = second compound 10 µM, first compound 0.0316 µM
[26] = second compound 10 µM, first compound 0.1 µM
[27] = second compound 10 µM, first compound 0.316 µM
[28] = second compound 10 µM, first compound 1 µM
[29] = second compound 10 µM, first compound 3.16 µM
[30] = second compound 10 µM, first compound 10 µM
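Note: spheroids exposed to agents for seven days before reading.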

Structure (SMILES)	IC50 (second compound 0.1 µM) [µM]	IC50 (second compound 0.316 µM) [µM]	IC50 (second compound 1 µM) [µM]	IC50 (second compound 3.16 µM) [µM]	IC50 (second compound 10 µM) [µM]	viability, T/C [1] [%]	viability, T/C [2] [%]	viability, T/C [3] [%]	viability, T/C [4] [%]	viability, T/C [5] [%]	viability, T/C [6] [%]	viability, T/C [7] [%]	viability, T/C [8] [%]	viability, T/C [9] [%]	viability, T/C [10] [%]	viability, T/C [11] [%]	viability, T/C [12] [%]	viability, T/C [13] [%]	viability, T/C [14] [%]	viability, T/C [15] [%]	further results
COc1cc(Nc2ncc3c(n2)-c2ccc(Cl)cc2C(c2c(F)cccc2OC)=NC3)ccc1C(=O)O + Cc1cncc(-c2nc(NCCc3c[nH]c4ccccc34)c3ncn(C(C)C)c3n2)c1	> 10	> 10	> 10	> 10	< 0.0316	81	71.7	81.5	100	89	84.2	84.8	56.9	83.2	76.9	75.6	82.5	78	68.4	77.8	viability, T/C [16]: 77.9%; viability, T/C [17]: 70.1%; viability, T/C [18]: 87.6%; viability, T/C [19]: 60.5%; viability, T/C [20]: 50.9%; viability, T/C [21]: 76.8%; viability, T/C [22]: 67.2%; viability, T/C [23]: 58%; viability, T/C [24]: 71.7%; viability, T/C [25]: 8.18%; viability, T/C [26]: 22.4%; viability, T/C [27]: 26.9%; viability, T/C [28]: 10.4%; viability, T/C [29]: 29.2%; viability, T/C [30]: 39.9%
NS(=O)(=O)OCC1CC(n2ccc3c(NC4CCc5ccccc54)ncnc32)CC1O (stereo not given) + Cc1cncc(-c2nc(NCCc3c[nH]c4ccccc34)c3ncn(C(C)C)c3n2)c1	0.622	0.523	0.515	0.203	< 0.0316	98.7	107	98.2	16.1	3.52	1.45	103	101	81.4	9.63	2.6	2.07	102	79.7	83.1	viability, T/C [16]: 4.87%; viability, T/C [17]: 3.05%; viability, T/C [18]: 5.22%; viability, T/C [19]: 93.6%; viability, T/C [20]: 74.9%; viability, T/C [21]: 35.1%; viability, T/C [22]: 3.64%; viability, T/C [23]: 2.03%; viability, T/C [24]: 1%; viability, T/C [25]: 20.5%; viability, T/C [26]: 17.1%; viability, T/C [27]: 23.3%; viability, T/C [28]: 1.9%; viability, T/C [29]: 1.17%; viability, T/C [30]: 0.46%
